# Experimental data reported in US20200237731A1, “USE OF CLOXACILLIN TO INHIBIT/PREVENT BIOFILM FORMATION” (priority 2017, published 2020).
# “And” between values parts separate entries of the source, which are not always exact repeats. Equal entries are not always repeated.
# How the values were obtained:
# [1] = system: clinical strains of Staphylococcus aureus; test: Antibiofilmogram / BioFilm Ring Test: biofilm minimum inhibitory concentration (MICb); type: cell-based; details: for MIC: Staphylococcus aureus; for MIC / MIC b: 4 h, BHI medium
# Method: To determine and measure the effect of cloxacillin on biofilm formation, specifically bacterial adhesion, the first step in biofilm formation, Staphylococcus aureus strains S14 and S39 were incubated in the wells of a 96-well microplate in the presence of varying concentrations of cloxacillin. The concentrations tested ranged from 0.25 μg/mL to 32 μg/mL cloxacillin. This test is called, by BioFilm Control, an Antibiofilmogram®. The inoculum of bacteria was 4·10^6 bacteria/mL, in 200 μL brain heart infusion (BHI) medium, in the presence of magnetic microbeads (Toner 4, product code TON004) at a concentration of 2 μL per 200 μL, i.e. 10 μL/mL).
# The microplate was incubated for 4 hat 37° C., then covered with 120 μL of contrast liquid (Contrast liquid; product code LIC001) and placed for 1 minute on a magnet block (product code BKTMB) designed so that each mini-magnet is centered with respect to the 96 wells. The microplate was then placed on a scanner and the image was acquired and analyzed by the BFCE3 software which quantifies the aggregation of the magnetic microbeads in the center of the wells and provides a biofilm formation index (BFI) value. A BFI value of 20, or close to 20 corresponds to maximum aggregation, therefore no biofilm formation, and therefore cloxacillin anti-adhesion efficacy. […] All intermediate values, allowing a quantitative measurement of the efficacy of cloxacillin are possible.
# The experimental procedure and protocol were as described above.
# The measurement of the MICb (determination of the biofilm minimum inhibitory concentration), using the BioFilm Ring ^Test® was performed in BHI medium. The conversion in mg/kg. The results are summarized in Table 1 according to the strains tested.
# [2] = system: clinical strains of Staphylococcus aureus; test: MIC of cloxacillin by growth (absorbance) in 96-well microplates, brain heart infusion (BHI) medium; type: cell-based
# Method: The determination of each minimum inhibitory concentration (MIC) of cloxacillin was measured conventionally by measuring the growth of each strain in 96-well microplates in the presence of concentrations of antibiotic by absorbance.
# The MIC was measured in Mueller-Hinton medium (MH; reference medium for antibiotic susceptibility testing) and brain heart infusion (BHI) medium.
structure (smiles),measurement,setting,value
Cc1onc(-c2ccccc2Cl)c1C(=O)N[C@@H]1C(=O)N2[C@@H]1SC(C)(C)[C@@H]2C(=O)O [cloxacillin],MIC,[1]; strain S02,2 µg/mL
same,MIC,[1]; strain S04,4 µg/mL
same,MIC,[1]; strain S08,2 µg/mL
same,MIC,[1]; strain S11,4 µg/mL
same,MIC,[1]; strain S14,2 µg/mL
same,MIC,[1]; strain S16,4 µg/mL
same,MIC,[1]; strain S19,2 µg/mL
same,MIC,[1]; strain S21,4 µg/mL
same,MIC,[1]; strain S22,4 µg/mL
same,MIC,[1]; strain S26,4 µg/mL
same,MIC,[1]; strain S27,4 µg/mL
same,MIC,[1]; strain S31,4 µg/mL
same,MIC,[1]; strain S34,8 µg/mL
same,MIC,[1]; strain S38,16 µg/mL
same,MIC,[1]; strain S39,8 µg/mL
same,MIC,[1]; strain S40,4 µg/mL
same,MIC,[1]; strain S43,4 µg/mL
same,MIC,[1]; strain S44,4 µg/mL
same,MIC,[1]; strain S46,2 µg/mL
same,MIC,[1]; strain S47,2 µg/mL
same,MIC,[1]; strain S51,4 µg/mL
same,MIC,[1]; strain S58,16 µg/mL
same,MIC,[1]; strain S62,8 µg/mL
same,MIC,[1]; strain S63,8 µg/mL
same,MIC,[1]; strain S74,4 µg/mL
same,MIC,[1]; strain S83,16 µg/mL
same,mean MICb,"[1]; panel of 26 strains, standard deviation 4.2 μg/mL",5.5 µg/mL
same,MIC b,[1]; strain S02,2 µg/mL
same,MIC b,[1]; strain S14,2 µg/mL
same,MIC b,[1]; strain S38,16 µg/mL
same,MIC b,[1]; strain S39,6 µg/mL and 4 to 6 µg/mL and 4 µg/mL
same,MIC b,[1]; strain S58,16 µg/mL
same,MIC b,[1]; strain S83,16 µg/mL
same,MIC,[2]; strain S02,0.25 µg/mL
same,MIC,[2]; strain S04,0.5 µg/mL
same,MIC,[2]; strain S08,0.5 µg/mL
same,MIC,[2]; strain S11,0.5 µg/mL
same,MIC,[2]; strain S14,0.25 µg/mL
same,MIC,[2]; strain S16,0.5 µg/mL
same,MIC,[2]; strain S19,0.5 µg/mL
same,MIC,[2]; strain S21,0.5 µg/mL
same,MIC,[2]; strain S22,0.5 µg/mL
same,MIC,[2]; strain S26,0.25 µg/mL
same,MIC,[2]; strain S27,0.25 µg/mL
same,MIC,[2]; strain S31,0.5 µg/mL
same,MIC,[2]; strain S34,0.5 µg/mL
same,MIC,[2]; strain S38,0.5 µg/mL
same,MIC,[2]; strain S39,0.125 µg/mL
same,MIC,[2]; strain S40,0.5 µg/mL
same,MIC,[2]; strain S43,0.25 µg/mL
same,MIC,[2]; strain S44,0.5 µg/mL
same,MIC,[2]; strain S46,0.125 µg/mL
same,MIC,[2]; strain S47,0.25 µg/mL
same,MIC,[2]; strain S51,0.25 µg/mL
same,MIC,[2]; strain S58,0.25 µg/mL
same,MIC,[2]; strain S62,0.5 µg/mL
same,MIC,[2]; strain S63,0.25 µg/mL
same,MIC,[2]; strain S74,0.25 µg/mL
same,MIC,[2]; strain S83,0.125 µg/mL
